Data as given in PubChem BioAssay (NCI).
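Step 1: Grow cells in 96-well plates. Step 2: Expose to compound for 48 hours at 5 concentrations. Step 3: Interpolate endpoints linearly; if unreached, use highest concentration. GI50 marks 50% less growth. TGI is the concentration that stops growth completely.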

What was measured:
Test in all cases: NCI-60 cell line screen, 48 h
SK-MEL-5 melanoma = system: SK-MEL-5 melanoma
MOLT-4 leukemia = system: MOLT-4 leukemia
T-47D breast = system: T-47D breast
HOP-92 NSCLC = system: HOP-92 NSCLC
IGROV1 ovarian = system: IGROV1 ovarian
COLO 205 colon = system: COLO 205 colon
SNB-19 CNS = system: SNB-19 CNS
HT29 colon = system: HT29 colon
K-562 leukemia = system: K-562 leukemia
HS 578T breast = system: HS 578T breast
CAKI-1 renal = system: CAKI-1 renal
KM12 colon = system: KM12 colon
HCC-2998 colon = system: HCC-2998 colon
MDA-MB-435 = system: MDA-MB-435
ACHN renal = system: ACHN renal
A549 NSCLC = system: A549 NSCLC
OVCAR-3 ovarian = system: OVCAR-3 ovarian
SW-620 colon = system: SW-620 colon
RPMI-8226 leukemia = system: RPMI-8226 leukemia
TK-10 renal = system: TK-10 renal
SK-OV-3 ovarian = system: SK-OV-3 ovarian
HL-60(TB) leukemia = system: HL-60(TB) leukemia
NCI-H226 lung = system: NCI-H226 lung
DU-145 prostate = system: DU-145 prostate
OVCAR-5 ovarian = system: OVCAR-5 ovarian
RXF 393 renal = system: RXF 393 renal
786-0 renal = system: 786-0 renal
SF-539 CNS = system: SF-539 CNS
SR leukemia = system: SR leukemia
HOP-62 NSCLC = system: HOP-62 NSCLC
A498 renal = system: A498 renal
NCI-H460 lung = system: NCI-H460 lung
MALME-3M melanoma = system: MALME-3M melanoma
SN12C renal = system: SN12C renal
SF-295 CNS = system: SF-295 CNS
BT-549 breast = system: BT-549 breast
CCRF-CEM leukemia = system: CCRF-CEM leukemia
EKVX NSCLC = system: EKVX NSCLC
MDA-MB-231 breast = system: MDA-MB-231 breast
MDA-MB-468 breast = system: MDA-MB-468 breast
NCI/ADR-RES ovarian = system: NCI/ADR-RES ovarian
NCI-H522 lung = system: NCI-H522 lung
SK-MEL-28 melanoma = system: SK-MEL-28 melanoma
PC-3 prostate = system: PC-3 prostate
SNB-75 CNS = system: SNB-75 CNS
NCI-H23 lung = system: NCI-H23 lung
OVCAR-8 ovarian = system: OVCAR-8 ovarian
HCT-15 colon = system: HCT-15 colon
HCT-116 colon = system: HCT-116 colon
UO-31 renal = system: UO-31 renal
OVCAR-4 ovarian = system: OVCAR-4 ovarian
M14 melanoma = system: M14 melanoma
LOX IMVI melanoma = system: LOX IMVI melanoma
UACC-257 melanoma = system: UACC-257 melanoma
U251 CNS = system: U251 CNS
SK-MEL-2 melanoma = system: SK-MEL-2 melanoma
SF-268 CNS = system: SF-268 CNS
UACC-62 melanoma = system: UACC-62 melanoma
MCF7 breast = system: MCF7 breast

Question: COc1ccc2[nH]c(=O)c(CSc3ccccc3Nc3nccc(-c4ccc(C(F)(F)F)cc4)n3)cc2c1 was tested. Which GI50 (SK-MEL-5 melanoma) did it give?
Answer: 10.5 µM

Question: What about the TGI (SK-MEL-5 melanoma) of the same molecule?
Answer: 22.2 µM

Question: And the GI50 (MOLT-4 leukemia)?
Answer: 3.59 µM

Question: And the TGI (MOLT-4 leukemia)?
Answer: 15.7 µM

Question: And the GI50 (T-47D breast)?
Answer: 5.66 µM

Question: What about the TGI (T-47D breast) of the same molecule?
Answer: 20.3 µM

Question: What about the GI50 (HOP-92 NSCLC) of the same molecule?
Answer: 2.2 µM

Question: What about the TGI (HOP-92 NSCLC) of the same molecule?
Answer: 17.3 µM

Question: What about the GI50 (IGROV1 ovarian) of the same molecule?
Answer: 9.67 µM

Question: What about the TGI (IGROV1 ovarian) of the same molecule?
Answer: 21.4 µM

Question: What about the GI50 (COLO 205 colon) of the same molecule?
Answer: 11.1 µM

Question: And the TGI (COLO 205 colon)?
Answer: 23.1 µM

Question: What about the GI50 (SNB-19 CNS) of the same molecule?
Answer: 13.5 µM

Question: And the TGI (SNB-19 CNS)?
Answer: 26.3 µM

Question: What about the GI50 (HT29 colon) of the same molecule?
Answer: 3.64 µM

Question: And the TGI (HT29 colon)?
Answer: 12.7 µM

Question: What about the GI50 (K-562 leukemia) of the same molecule?
Answer: 4.46 µM

Question: And the TGI (K-562 leukemia)?
Answer: 21.6 µM

Question: What about the GI50 (HS 578T breast) of the same molecule?
Answer: 13.2 µM

Question: What about the TGI (HS 578T breast) of the same molecule?
Answer: 36.5 µM

Question: And the GI50 (CAKI-1 renal)?
Answer: 9.2 µM

Question: What about the TGI (CAKI-1 renal) of the same molecule?
Answer: 21.2 µM

Question: What about the GI50 (KM12 colon) of the same molecule?
Answer: 5.6 µM

Question: What about the TGI (KM12 colon) of the same molecule?
Answer: 17.9 µM

Question: And the GI50 (HCC-2998 colon)?
Answer: 5.27 µM

Question: What about the TGI (HCC-2998 colon) of the same molecule?
Answer: 18.1 µM

Question: And the GI50 (MDA-MB-435)?
Answer: 8.95 µM

Question: What about the TGI (MDA-MB-435) of the same molecule?
Answer: 21.1 µM

Question: What about the GI50 (ACHN renal) of the same molecule?
Answer: 5 µM

Question: What about the TGI (ACHN renal) of the same molecule?
Answer: 16.9 µM

Question: And the GI50 (A549 NSCLC)?
Answer: 5.28 µM

Question: And the TGI (A549 NSCLC)?
Answer: 18.5 µM

Question: What about the GI50 (OVCAR-3 ovarian) of the same molecule?
Answer: 3.48 µM

Question: And the TGI (OVCAR-3 ovarian)?
Answer: 15.2 µM

Question: What about the GI50 (SW-620 colon) of the same molecule?
Answer: 5.43 µM

Question: What about the TGI (SW-620 colon) of the same molecule?
Answer: 18.2 µM

Question: And the GI50 (RPMI-8226 leukemia)?
Answer: 3.27 µM

Question: And the TGI (RPMI-8226 leukemia)?
Answer: 15.4 µM

Question: What about the GI50 (TK-10 renal) of the same molecule?
Answer: 17.4 µM

Question: What about the TGI (TK-10 renal) of the same molecule?
Answer: 31.2 µM

Question: What about the GI50 (SK-OV-3 ovarian) of the same molecule?
Answer: 15.8 µM

Question: What about the TGI (SK-OV-3 ovarian) of the same molecule?
Answer: 29.3 µM

Question: And the GI50 (HL-60(TB) leukemia)?
Answer: 8.6 µM

Question: And the TGI (HL-60(TB) leukemia)?
Answer: 28.2 µM

Question: What about the GI50 (NCI-H226 lung) of the same molecule?
Answer: 4.76 µM

Question: And the TGI (NCI-H226 lung)?
Answer: 18.8 µM

Question: What about the GI50 (DU-145 prostate) of the same molecule?
Answer: 8.89 µM

Question: And the TGI (DU-145 prostate)?
Answer: 21 µM

Question: What about the GI50 (OVCAR-5 ovarian) of the same molecule?
Answer: 13 µM

Question: What about the TGI (OVCAR-5 ovarian) of the same molecule?
Answer: 25.7 µM

Question: And the GI50 (RXF 393 renal)?
Answer: 3.03 µM

Question: What about the TGI (RXF 393 renal) of the same molecule?
Answer: 8.62 µM

Question: What about the GI50 (786-0 renal) of the same molecule?
Answer: 6.43 µM

Question: What about the TGI (786-0 renal) of the same molecule?
Answer: 19.1 µM

Question: What about the GI50 (SF-539 CNS) of the same molecule?
Answer: 10.3 µM

Question: And the TGI (SF-539 CNS)?
Answer: 21.9 µM

Question: And the GI50 (SR leukemia)?
Answer: 2.91 µM

Question: And the TGI (SR leukemia)?
Answer: 11.1 µM

Question: What about the GI50 (HOP-62 NSCLC) of the same molecule?
Answer: 15.4 µM

Question: What about the TGI (HOP-62 NSCLC) of the same molecule?
Answer: 28.7 µM

Question: And the GI50 (A498 renal)?
Answer: 13.8 µM

Question: What about the TGI (A498 renal) of the same molecule?
Answer: 26.7 µM

Question: What about the GI50 (NCI-H460 lung) of the same molecule?
Answer: 4.05 µM

Question: And the TGI (NCI-H460 lung)?
Answer: 14.5 µM

Question: What about the GI50 (MALME-3M melanoma) of the same molecule?
Answer: 12 µM

Question: And the TGI (MALME-3M melanoma)?
Answer: 24.3 µM

Question: And the GI50 (SN12C renal)?
Answer: 3.74 µM

Question: What about the TGI (SN12C renal) of the same molecule?
Answer: 13.1 µM

Question: What about the GI50 (SF-295 CNS) of the same molecule?
Answer: 10.1 µM

Question: What about the TGI (SF-295 CNS) of the same molecule?
Answer: 21.6 µM

Question: What about the GI50 (BT-549 breast) of the same molecule?
Answer: 6.57 µM

Question: What about the TGI (BT-549 breast) of the same molecule?
Answer: 19.7 µM

Question: And the GI50 (CCRF-CEM leukemia)?
Answer: 3.84 µM

Question: And the TGI (CCRF-CEM leukemia)?
Answer: 18.5 µM

Question: And the GI50 (EKVX NSCLC)?
Answer: 10.3 µM

Question: What about the TGI (EKVX NSCLC) of the same molecule?
Answer: 22.4 µM

Question: What about the GI50 (MDA-MB-231 breast) of the same molecule?
Answer: 11.1 µM

Question: What about the TGI (MDA-MB-231 breast) of the same molecule?
Answer: 23.1 µM

Question: What about the GI50 (MDA-MB-468 breast) of the same molecule?
Answer: 2.65 µM

Question: What about the TGI (MDA-MB-468 breast) of the same molecule?
Answer: 10.2 µM

Question: What about the GI50 (NCI/ADR-RES ovarian) of the same molecule?
Answer: 4.32 µM

Question: What about the TGI (NCI/ADR-RES ovarian) of the same molecule?
Answer: 17.5 µM

Question: And the GI50 (NCI-H522 lung)?
Answer: 3.82 µM

Question: What about the TGI (NCI-H522 lung) of the same molecule?
Answer: 16.2 µM

Question: And the GI50 (SK-MEL-28 melanoma)?
Answer: 11.8 µM

Question: And the TGI (SK-MEL-28 melanoma)?
Answer: 24.1 µM

Question: And the GI50 (PC-3 prostate)?
Answer: 3.2 µM

Question: What about the TGI (PC-3 prostate) of the same molecule?
Answer: 12.6 µM

Question: And the GI50 (SNB-75 CNS)?
Answer: 12.5 µM

Question: And the TGI (SNB-75 CNS)?
Answer: 25.5 µM

Question: And the GI50 (NCI-H23 lung)?
Answer: 6.28 µM

Question: And the TGI (NCI-H23 lung)?
Answer: 19.3 µM

Question: And the GI50 (OVCAR-8 ovarian)?
Answer: 9.59 µM

Question: What about the TGI (OVCAR-8 ovarian) of the same molecule?
Answer: 21.4 µM

Question: What about the GI50 (HCT-15 colon) of the same molecule?
Answer: 4.69 µM

Question: What about the TGI (HCT-15 colon) of the same molecule?
Answer: 16.7 µM

Question: What about the GI50 (HCT-116 colon) of the same molecule?
Answer: 3.14 µM

Question: And the TGI (HCT-116 colon)?
Answer: 10.6 µM

Question: And the GI50 (UO-31 renal)?
Answer: 4.5 µM

Question: And the TGI (UO-31 renal)?
Answer: 18.1 µM

Question: And the GI50 (OVCAR-4 ovarian)?
Answer: 3.42 µM

Question: And the TGI (OVCAR-4 ovarian)?
Answer: 13.7 µM

Question: What about the GI50 (M14 melanoma) of the same molecule?
Answer: 11.2 µM

Question: And the TGI (M14 melanoma)?
Answer: 23.2 µM

Question: What about the GI50 (LOX IMVI melanoma) of the same molecule?
Answer: 3.06 µM

Question: And the TGI (LOX IMVI melanoma)?
Answer: 11.5 µM

Question: And the GI50 (UACC-257 melanoma)?
Answer: 13 µM

Question: And the TGI (UACC-257 melanoma)?
Answer: 25.7 µM

Question: What about the GI50 (U251 CNS) of the same molecule?
Answer: 10.5 µM

Question: What about the TGI (U251 CNS) of the same molecule?
Answer: 22.3 µM

Question: What about the GI50 (SK-MEL-2 melanoma) of the same molecule?
Answer: 10.8 µM

Question: And the TGI (SK-MEL-2 melanoma)?
Answer: 22.7 µM

Question: And the GI50 (SF-268 CNS)?
Answer: 5.15 µM

Question: And the TGI (SF-268 CNS)?
Answer: 18.2 µM

Question: What about the GI50 (UACC-62 melanoma) of the same molecule?
Answer: 11.8 µM

Question: And the TGI (UACC-62 melanoma)?
Answer: 24 µM

Question: What about the GI50 (MCF7 breast) of the same molecule?
Answer: 2.97 µM

Question: What about the TGI (MCF7 breast) of the same molecule?
Answer: 11 µM
